Assays:
[1] = tested on: MDA-MB468; test: XTT assay, anti-proliferative effect, MDA-MB468; format: cell-based; settings: 45 h incubation
Description: (§1) The principle of this test is based on the intracellular reduction of the tetrazolium dye XTT (sodium 3′-[1-(phenylaminocarbonyl)-3,4-tetrazolium]-bis(4-methoxy-6-nitro)benzene sulfonic acid, Sigma) to a formazan dye by mitochondrial dehydrogenases. The dye is only formed by metabolically active cells and its photometrically measurable intensity is a quantitative indicator for the presence of living cells. The reduction of dye formation by incubation of the cells with substances serves as a parameter for the anti-proliferative effect.
(§2) The tumour cell lines (ATCC) were injected into 96-well microtitre plates in a defined cell number (5000 cells/well for BxPC3 and Hct116; 10000 cells/well for MDA MB468) and then incubated overnight in an incubator at 37° C., 5% CO2 and 95% air humidity. The test substances were prepared as stock solutions (10 mM) in DMSO. […] The cell plates were then incubated for 45 h in an incubator at 37° C., 5% CO2 and 95% air humidity.
(§3) For the detection reaction the substrate XTT was mixed with PMS (N-Methyl dibenzopyrazine methylsulfate, Sigma) and added to the cells so that a final concentration of 325 μg XTT/ml and 2.5 μg PMS/ml was obtained. It was then incubated for 3 h at 37° C., 95% air humidity. The formazan salt formed by the cellular dehydrogenases could then be quantified by adsorption at 490 nm.
(§4) The % inhibition value was evaluated by means of the following formula from the values for the optical densities measured in each case at 490 nm:
(§5) Eight determinations were made for each control and two for the substance samples. The 0% control contains no cells, the 100% control (proliferation control) contains no test substance. The EC50 values were determined using GraphPadPrism.

[2] = tested on: BxPC3; test: XTT assay, anti-proliferative effect, BxPC3; format: cell-based; settings: Homo sapiens, BXPC-3; 45 h incubation
Description: as §1, §2, §3, §4, §5

| EC50 [1] [µM] | EC50 [2] [µM] | EC50 ([1]; Homo sapiens, MDA-MB-468) [µM] | melting point | SMILES |
| --- | --- | --- | --- | --- |
| 4.3 |  |  |  | CCNC(=O)Nc1ccc2ncc(-c3ccc(O)c(OC)c3)nc2n1.Cc1ccc(S(=O)(=O)O)cc1 [Compound 183, 1-Ethyl-3-[3-(4-hydroxy-3-methoxy-phenyl)-pyrido[2,3-b]pyrazin-6-yl]-urea p-Toluolsulfonate] |
|  | 12 | 4 | 230 °C (dec.) | C=CCNC(=S)Nc1ccc2ncc(-c3ccc(O)cc3)nc2n1 [Compound 30, 1-allyl-3-[3-(4-hydroxy-phenyl)-pyrido[2,3-b]pyrazin-6-yl]-thiourea] |
|  |  | > 25 |  | CCNC(=O)Nc1ccc2ncc(-c3cnn(C)c3)nc2n1 [Compound 173, 1-Ethyl-3-[3-(1-methyl-1H-pyrazol-4-yl)-pyrido[2,3-b]pyrazin-6-yl]-urea] |
|  | 0.9 | 4.3 |  | CCNC(=O)Nc1ccc2ncc(Nc3ccc(C)cc3)nc2n1 [Compound 150, 1-Ethyl-3-(3-p-tolylamino-pyrido[2,3-b]pyrazin-6-yl)-urea] |
|  | 10 | 10 |  | CCNC(=O)Nc1ccc2ncc(-c3ccc(O)c(OC)c3)nc2n1 [Compound 124, 1-Ethyl-3-[3-(4-hydroxy-3-methoxy-phenyl)-pyrido[2,3-b]pyrazin-6-yl]-urea] |
|  | > 50 | ~20 |  | O=C(NCCCCO)Nc1ccc2ncc(-c3ccccc3)nc2n1 [Compound 146, 1-(4-Hydroxy-butyl)-3-(3-phenyl-pyrido[2,3-b]pyrazin-6-yl)-urea] |
